The test system of series [1] is human lung cancer A549 cells. As to the kind of experiment: Cell invasion assayed by Transwell. The settings on record: invaded A549 cells, control 178.3 ± 13.8. The class given is cell-based. On the procedure:
Cell lines: human colon cancer HCT-116 cells and human lung cancer A549 cells were provided by NANJING […] BIOTECH. CO., LTD. […] The cell suspension was centrifuged at 800 to 1,000 rpm for 5 min, and the supernatant was discarded; 1.4. A complete culture medium was added to the cell pellet which was well mixed by gentle pipetting, the cell suspension was transferred to a culture flask, and the cells were cultured by supplementing culture medium. 1. […] After incubation of cells with the test drugs for 24 hours, serum was removed, and the cells were incubated under starvation with an incomplete culture medium for 24 hours; 3. Matrigel was placed at 4° C. in advance to thaw overnight; 4. Thawed Matrigel was 1:1 diluted with the incomplete culture medium, 30 μl diluted Matrigel was added to the upper compartment of Transwell and incubated at 37° C. for 120 min to gel the Matrigel; 5. Cells from different groups were digested, counted, and then adjusted to a density of 1×10^5 cells/ml with the incomplete culture medium, 100 μl cell suspension was added to the upper compartment (small compartment) of Transwell, and 500 μl medium containing 20% FBS was added to the lower compartment of Transwell; 6. A 24-well cell culture plate was placed in an incubator at 37° C. and 5% CO2 to culture the cells for 24 hours; 7. […] The assay was repeated one more time.

In series [2] the test system is human lung cancer A549 cells. In words: Cell cycle by PI single staining (flow cytometry). Format: cell-based. The settings on record: GM 250 nM in NS, 72 hours. As for the experimental part:
Effect of deuterium oxide on the cell cycle of human lung cancer A549 cells and human colon cancer HCT-116 cells Human lung cancer A549 cells and human colon cancer HCT-116 cells were provided by NANJING […] BIOTECH. CO., LTD., and cultured in an incubator at 37° C., 5% CO2 and saturated humidity. A KGA511 Cell cycle assay kit was provided by NANJING […] BIOTECH. CO., LTD. The flow cytometer was FACS Calibur provided by Becton-Dickinson, US. […] The cell suspension was centrifuged at 800 to 1,000 rpm for 5 min, and the supernatant was discarded; 1.4. A complete culture medium was added to the cell pellet which was well mixed by gentle pipetting, the cell suspension was transferred to a culture flask, and the cells were cultured by supplementing culture medium. […] When all the cells became round, an equal volume of culture medium containing serum was added to cease the digestion; 2.4. The cells were blown by pipetting to suspend, then drawn into a 15 ml centrifugal tube, and centrifuged at 1000 rpm for 5 min; 2.5. […] 1. Cells growing in the exponential phase were digested and inoculated to a 6-well plate; on the next day, after the cells attached to the wall, cell culture media containing corresponding test drugs were added according to different groups, and a negative control group was also set; 2. […] The cells were washed with PBS once (centrifuged at 2,000 rpm for 5 min), and 5×10^5 cells were collected; 4. […] In a detection apparatus, red fluorescence with an excitation wavelength of 488 nm was recorded.
A general note: In flow cytometry, cells or beads pass a laser one at a time.

In series [3] the test system is xenograft tumors from human breast cancer MCF-7 cells. As to the kind of experiment: MCF-7 xenograft in nude mice, intravenous deuterium oxide in combination with gemcitabine. The class given is in vivo, BALB/c nude mice. The settings on record: for Body weight (g) End, given as change / Body weight (g) Initial / Bone marrow DNA content (OD): mouse, in vivo; for Inhibition (%): tumor weight. As for the experimental part:
Ltd. Cell lines: human breast cancer MCF-7 cells were provided by NANJING […] BIOTECH. CO., LTD. […] Bone marrow nucleated cells were isolated by a routine method, DNA was extracted from the cells, the OD value was measured in a UV-260 spectrometer as a representative of the DNA content, and inhibition of DNA synthesis by the test samples was observed. The test used 7 groups in total, with 8 animals per group. […] Statistics: the same as Example 21.

In series [4] the test system is human pancreatic cancer PANC-1 cells inoculated into the peritoneal cavity. As to the kind of experiment: Survival of nude mice bearing PANC-1 cells, 42° C. intraperitoneal retention lavage with HP-β-CD or sodium chloride deuterium oxide solution and gemcitabine. The class given is in vivo. To be noted: 42° C. NS 10 ml/kg + gemcitabine 20 mg/kg, i.p. lavage x 5.
Procedure: Effect of 42° C. hyperthermicintraperitoneal retention lavage with hydroxypropyl-β-cyclodextrin (HP-β-CD) deuterium oxide solution in combination with gemcitabine (GEM) on the survival of nude mice bearing human pancreatic cancer PANC-1 cell.
Animal: 4 to 5 week-aged male nude mice, provided by Shanghai SIPPR-BK Laboratory Animal Co. Ltd.
Cell lines: human pancreatic cancer PANC-1 cell line was provided by NANJING KEYGEN BIOTECH.
Modeling: 0.2 ml suspension of pancreatic cancer PANC-1 cells containing 1×10^7 cells/ml (2×10^6 cells in total) was inoculated into the peritoneal cavity of the nude mice.
Grouping and dosing: the mouse model was established 7 to 8 days after inoculation into the nude mice, and the mice were randomized with 18 animals/group.
Gemcitabine was separately dissolved in the HP-β-CD deuterium oxide solution at 42° C., and in the sodium chloride deuterium oxide solution at 42° C., for intraperitoneal lavage of tumor-bearing mice.
Blank control group (42° C. sodium chloride physiological solution, 10 ml/kg); 2). Normal chemo group (42° C. sodium chloride physiological solution, 10 ml/kg+gemcitabine 20 mg/kg); 3). Low-dose sodium chloride deuterium oxide solution+gemcitabine group (42° C. sodium chloride deuterium oxide solution, 5 ml/kg+gemcitabine 20 mg/kg); 4). […]
Series [5] deals with xenograft tumors from human lung cancer A549 cells. To be noted: mouse, in vivo.
Procedure: (§1) Animal: 6 to 7 week-aged female BALB/c nude mice, each weighing 18 to 20 g, provided by Shanghai SLAC Laboratory Animal Co. Ltd.
(§2) Test drugs: gemcitabine (GEM) and the sodium chloride deuterium oxide solution prepared in Example 1.
(§3) Tumor cells were resuscitated and inoculated, and sterile sodium chloride physiological solution was added thereto to make a cell suspension which was subcutaneously inoculated into the upper right axillary fossa of animals. 5×10^6 tumor cells were inoculated into each animal.
(§4) The diameter of xenograft tumors in the nude mice was measured with a vernier caliper, and 10 days after inoculation, when tumors grew to 100 to 110 cm^3, the animals were randomized with 8 mice per group. Meanwhile drugs were administered by injection into tail vein, once every three days, for 21 successive days. By measuring the tumor diameter, the anti-tumor efficacy of test samples was dynamically observed. Meanwhile the body weight of animals was also recorded to observe the toxicity of the test samples. 21 days after administration, the nude mice were sacrificed, and tumors were harvested by surgery, weighed and photographed.
(§5) 6) Test group 2: gemcitabine (10 mg/kg) diluted in the sodium chloride deuterium oxide solution (10 ml/kg). 7) Test group 3: gemcitabine (10 ml/kg) diluted in the sodium chloride deuterium oxide solution (20 ml/kg).
For series [6] the test system is unchanged. In words: A549 xenograft in nude mice, intravenous deuterium oxide in combination with gemcitabine. To be noted: for Inhibition (%): tumor weight.
Procedure: as §1, §2, §3, §4, §5
Series [7] relates to superficial bladder cancer (SBC). The settings on record: mitomycin dissolved in only a sodium chloride solution, intrabladder perfusion and lavage; cited from earlier work.
The mark [8] stands for this setting: GEM(H) 20 mg/kg × 11, tail vein.
Setting [9] is: GEM(L) 10 mg/kg × 11, tail vein, 10 mg/kg.
The mark [10] stands for this setting: GEM(L) 10 mg/kg × 11, tail vein, listed as gemcitabine, 10 mg/kg.
[11] abbreviates: GEM(H) 20 mg/kg × 11, tail vein, 20 mg/kg.
Where [12] appears, read: GEM(H) 20 mg/kg × 11, tail vein, listed as gemcitabine, 20 mg/kg.

Like-named read-outs stand apart in the source and are kept apart here. Marks after values point to notes of the source that are not given here.

With `Nc1ccn([C@@H]2O[C@H](CO)[C@@H](O)C2(F)F)c(=O)n1` [Gemcitabine, gemcitabine], the Number of cells was 160.0 ± 6.6 in series [1] (GEM 1.95 nM); 112.7 ± 3.5 in series [1] (GEM 3.9 nM); 59.0 ± 2.0 in series [1] (GEM 7.8 nM); 51.7 ± 3.1 in series [1] (GEM 15.6 nM); 37.3 ± 2.3 in series [1] (GEM 31.2 nM); 22.3 ± 0.6 in series [1] (GEM 62.5 nM). In addition, the Number of cells in series [1] (GEM 125 nM) amounted to 16.0 ± 1.0; in series [1] (GEM 250 nM), 9.7 ± 2.1. In addition, the “G1 Phase” value in series [2] was determined as 73.73 ± 3.73%. Also, the “G2 Phase” value in series [2] is reported as 10.71 ± 2.39%. For the same molecule, in series [2], the “S Phase” value is listed as 15.55 ± 5.51%. The tumor volume in series [3] (21 days after administration, gemcitabine 10 mg/kg alone) was 2.757±0.342 cm^3. The “Tumor weight” value is 1.57 ± 0.21 g in series [3] (setting [8]); 2.48 ± 0.41 g in series [3] (GEM(L) 10 mg/kg × 11, tail vein); 1.04 ± 0.13 g in series [6] (setting [11]); 1.04 ± 0.13 g in series [6] (setting [12]); 2.23 ± 0.2 g in series [6] (setting [9]); 2.23 ± 0.2 g in series [6] (setting [10]). The “T/C (relative tumor growth ratio)” value in series [3] (gemcitabine 10 mg/kg alone, vs negative control) is reported as 60.39%. Besides, the “Body weight (g) End, given as change” value in series [3] (10 mg/kg) is on record as “+2.9 g”; in series [3] (20 mg/kg), “+0.9 g”; in series [5] (10 mg/kg), “+0.4 g”; in series [5] (20 mg/kg), “+0.5 g”. Moreover, the “Body weight (g) Initial” value was 18.0 g in series [3] (10 mg/kg), 18.1 g in series [3] (20 mg/kg), 18.0 g in series [5] (10 mg/kg) and 18.4 g in series [5] (20 mg/kg). Besides, the results for the “Bone marrow DNA content (OD)” value in series [3] (10 mg/kg) and in series [3] (20 mg/kg) were 0.908 ± 0.2543 OD and 0.823 ± 0.1416 OD, respectively. Also, the “Inhibition (%)” value in series [3] (setting [8]) was 61.42%*; in series [3] (setting [9]), 39.06%; in series [3] (setting [10]), 39.18%; in series [6] (setting [11]), 64.54* %; in series [6] (setting [12]) it was 64.54%; in series [6] (setting [9]), 23.64%. The “Inhibition (%)” value in series [6] (setting [10]) is 23.6%. Further, in series [4], the “T/C(%)” value is reported as 150.8%. The “MST” value in series [4] (control 11.8 ± 2.2) came out at 17.8 ± 1.8 days.
In the case of `CO[C@@]12[C@H](COC(N)=O)C3=C(C(=O)C(C)=C(N)C3=O)N1C[C@@H]1N[C@@H]12` [mitomycin], the tumor recurrence rate in series [7] was 78%.

(Values after US20170071976A1, “PHARMACEUTICAL SOLUTION HAVING ANTI-TUMOR EFFECT-ENHANCING AND TOXICITY-REDUCING EFFECT, AND PHARMACEUTICAL COMPOSITION COMPRISING SAME” (priority 2014, published 2017).)
